Data set [1] deals with HCV replicon in human hepatoma Huh-7 cell line. Nature of the data set: Anti-HCV replicon assay, EC50 (luciferase luminescence). Format: cell-based. The settings on record: Hepatitis C virus, Huh-7, 72 h. How it is done:
(§1) The anti-HCV activity of the pyrido[3,2-d]pyrimidine derivatives of this invention was tested in a human hepatoma Huh-7 cell line harboring a HCV replicon. The assay comprised the following steps: • Step 1: compound preparation and serial dilution: serial dilution is performed in 50% DMSO in a 384-well plate. A solution containing a compound at 100-fold concentration of the starting final serial dilution concentration was prepared in 50% DMSO and added to the pre-specified wells in column 1 of a polypropylene 384-well plate. The plate was then placed on a Precision 2000 Workstation to start the serial dilution. After the serial dilution, a volume of 2 μL of the solution was transferred from the 384-well plate to a 96-well cell culture plate containing 100 μL of cell media on a Biomek FX Workstation. The DMSO concentration in the final assay condition was 0.5% after cells are added to the plate and the total volume in each well is brought to 200 μL. • Step 2: to each well of the serial dilution plate prepared above, 100 μL of cell media containing 6000 suspended Huh-7 HCV replicon cells was added with a Multidrop workstation. The plates were incubated for 3 days at 37° C. with 5% CO2. • Step 3: detection: • a) for the EC50 assay, the media in a 96-well cell culture plate was aspirated with a Biotek EL405 plate-washer. A volume of 200 μL of a solution containing a 1:1 mixture of cell-lysis buffer (Promega, Luciferase Cell Culture Lysis 5× Reagent, cat. #E1531) and luciferase substrate solution (Promega, Luciferase Assay, cat.# E4550) was added to each well of the plate with Multidrop. The plate was incubated for 30 minutes at room temperature before the luminescence signal was measured with a TopCount plate-reader. • b) for the CC50 assay, a volume of 100 μL of pre-mixed CellTiter-Glo (Promega, cat.# G7572) solution is added directly to the cell culture in each well of the plate and the luminescence signal is measured with a TopCount plate-reader after 10 minutes of incubation at room temperature.
(In general: In antiviral work, replicon cells carry a viral genome segment that copies itself.)

Data set [2] is described as follows: CC50 assay (CellTiter-Glo) in Huh-7 HCV replicon cells. Format: cell-based. The conditions noted are these: human. How it is done:
as §1

A word on the EC50: it is the concentration needed to bring the measured effect to its halfway point. A lower EC50 goes with higher potency in that assay. As usually defined, the CC50 is the concentration that lowers cell viability or growth by half.

Consider `C#Cc1ccc2nc(N[C@H](C)c3ccc(S(N)(=O)=O)cc3)nc(OC(C)C)c2n1` [Example 306, (R)-4-(1-(6-ethynyl-4-isopropoxypyrido[3,2-d]pyrimidin-2-ylamino)ethyl) benzenesulfonamide], for which, in data set [1], the EC50 lay within 250 to 2000 nM. Besides, in data set [2] (Table 2, 3 days incubation), the CC50 at 3 days was less than 1000 nM.
Taken in the same sequence, the figures for `CS(=O)(=O)c1cccc(-c2ccc3nc(NCc4ccc(-n5ccnc5)cc4)nc(NCC(F)(F)F)c3n2)c1` [Example 193, N^2-(4-(1H-imidazol-1-yl)benzyl)-6-(3-(methylsulfonyl)phenyl)-N^4-(2,2,2-trifluoroethyl) pyrido[3,2-d]pyrimidine-2,4-diamine] were less than 100 nM and greater than 10000 nM.
The like results for `COCC#Cc1ccc2nc(N[C@H](C)c3ccc(S(N)(=O)=O)cc3)nc(NCC(F)(F)F)c2n1` [Example 277, (R)-4-(1-(6-(3-methoxyprop-1-ynyl)-4-(2,2,2-trifluoroethyl-amino)pyrido[3,2-d]pyrimidin-2-ylamino)ethyl)benzene-sulfonamide] were, in that order, less than 100 nM and greater than 10000 nM.
Turning to `CS(=O)(=O)c1cc(-c2ccc3nc(NCc4ccc(S(N)(=O)=O)cc4)nc(NCC(F)(F)F)c3n2)ccc1F` [Example 21, 4-{[6-(4-Fluoro-3-methanesulfonyl-phenyl)-4-(2,2,2-trifluoro-ethylamino)-pyrido[3,2-d]pyrimidin-2-ylamino]-methyl}-benzenesulfonamide], in data set [1], the EC50 is less than 100 nM. In addition, the half-maximal cytotoxic concentration (CC50) at 3 days in data set [2] (Table 1, 3 days incubation) is greater than 25000 nM.
Consider `COc1ccc(-c2ccc3nc(NCc4ccc(F)c(F)c4)nc(NCC(F)(F)F)c3n2)cc1S(C)(=O)=O` [Example 161, N^2-(3,4-difluorobenzyl)-6-(4-methoxy-3-(methylsulfonyl)phenyl)-N^4-(2,2,2-trifluoroethyl) pyrido[3,2-d]pyrimidine-2,4-diamine], for which the EC50 in data set [1] is less than 100 nM. This compound came in with a CC50 at 3 days in data set [2] (Table 2, 3 days incubation) greater than 10000 nM.
`CC#Cc1ccc2nc(N[C@H](C)c3ccc(S(N)(=O)=O)cc3)nc(NCC(F)(F)F)c2n1` [Example 298, (R)-4-(1-(6-(prop-1-ynyl)-4-(2,2,2-trifluoroethylamino)pyrido[3,2-d]pyrimidin-2-ylamino)ethyl)benzene-sulfonamide] displayed an EC50 in data set [1] of less than 100 nM. Further, the CC50 at 3 days in data set [2] (Table 2, 3 days incubation) is greater than 10000 nM.
`CC#Cc1ccc2nc(N[C@H](C)c3ccc(S(N)(=O)=O)cc3)nc(OC3(C)CC3)c2n1` [Example 302, (R)-4-(1-(4-(1-methylcyclo-propoxy)-6-(prop-1-ynyl)pyrido[3,2-d]pyrimidin-2-ylamino)ethyl)benzene-sulfonamide] displayed an EC50 in data set [1] of less than 100 nM. In data set [2] (Table 2, 3 days incubation), this compound registered a CC50 at 3 days greater than 10000 nM.
Regarding `COc1ccc(-c2ccc3nc(N[C@H](C)c4ccc(S(N)(=O)=O)cc4)nc(NCC(F)(F)F)c3n2)cc1S(C)(=O)=O` [Example 145, 4-((R)-1-(6-(4-methoxy-3-(methylsulfonyl)phenyl)-4-(2,2,2-trifluoroethylamino)pyrido[3,2-d]pyrimidin-2-ylamino)ethyl)benzene-sulfonamide], the EC50 in data set [1] was 100 to 250 nM. Besides, the CC50 at 3 days in data set [2] (Table 2, 3 days incubation) was in the range of 1000 to 10000 nM.
As to `COc1ccc(CNc2nc(NCC(F)(F)F)c3nc(-c4ccc(F)cc4)ccc3n2)cc1S(N)(=O)=O` [Example 6], the EC50 in data set [1] lay within 100 to 250 nM. The CC50 at 3 days in data set [2] (Table 1, 3 days incubation) was greater than 25000 nM.
`C#Cc1ccc2nc(N[C@H](C)c3ccc(S(N)(=O)=O)cc3)nc(OC3(C)CC3)c2n1` [Example 295, (R)-4-(1-(6-ethynyl-4-(1-methylcyclopropoxy)pyrido [3,2-d]pyrimidin-2-ylamino)ethyl)benzenesulfonamide] came in with an EC50 in data set [1] of less than 100 nM. In addition, the CC50 at 3 days in data set [2] (Table 2, 3 days incubation) lay within 1000 to 10000 nM.
The like results for `CCOc1ccc(-c2ccc3nc(NCc4ccc(-n5cncn5)cc4)nc(NCC(F)(F)F)c3n2)cc1S(C)(=O)=O` [Example 183, N^2-(4-(1H-1,2,4-triazol-1-yl)benzyl)-6-(4-ethoxy-3-(methylsulfonyl)phenyl)-N^4-(2,2,2-trifluoroethyl)pyrido [3,2-d]pyrimidine-2,4-diamine] were, in that order, less than 100 nM and 1000 to 10000 nM.
`NS(=O)(=O)c1cc(Cl)cc(CNc2nc(NC3(C(F)(F)F)CC3)c3nc(-c4ccc(F)cc4)ccc3n2)c1` [Example 27, 3-chloro-5-{[6-(4-fluorophenyl)-4-(1-trifluoromethyl-cyclopropylamino)-pyrido[3,2-d]pyrimidin-2-ylamino]-methyl}-benzenesulfonamide] yielded an EC50 in data set [1] of 100 to 250 nM. This compound returned a CC50 at 3 days in data set [2] (Table 2, 3 days incubation) greater than 10000 nM.
Taken in the same sequence, the figures for `C[C@@H](Nc1nc(OC2(C)CC2)c2nc(C#CC3CC3)ccc2n1)c1ccc(S(N)(=O)=O)cc1` [Example 296, (R)-4-(1-(6-(2-cyclopropyl-ethynyl)-4-(1-methylcyclo-propoxy)pyrido[3,2-d]pyrimidin-2-ylamino)ethyl)benzene-sulfonamide] were less than 100 nM and greater than 10000 nM.
Taken in the same sequence, the figures for `Cc1cc(S(N)(=O)=O)c(C)cc1CNc1nc(NC2(C(F)(F)F)CC2)c2nc(-c3ccc(F)cc3)ccc2n1` [Example 83, 4-((6-(4-fluorophenyl)-4-(1-(trifluoromethyl)cyclopropylamino)pyrido[3,2-d]pyrimidin-2-ylamino)methyl)-2.5-dimethylbenzenesulfonamide] were 100 to 250 nM and greater than 10000 nM.
`CN1CCN(c2ccc(-c3ccc4nc(NCc5cccc(S(C)(=O)=O)c5)nc(NC5(C(F)(F)F)CC5)c4n3)cc2)C1=O` [Example 50, 1-(4-(2-(3-(methylsulfonyl)benzylamino)-4-(1-(trifluoromethyl)cyclopropylamino)pyrido[3,2-d]pyrimidin-6-yl)phenyl)-3-methylimidazolidin-2-one] yielded an EC50 in data set [1] of less than 100 nM. In data set [2] (Table 2, 3 days incubation), this compound displayed a CC50 at 3 days of 1000 to 10000 nM.
In turn, `CC(C)Oc1nc(NCc2ccc(-n3cncn3)cc2)nc2ccc(-c3ccc(OC(F)F)c(S(C)(=O)=O)c3)nc12` [Example 199, N-(4-(1H-1,2,4-triazol-1-yl)benzyl)-6-(4-(difluoromethoxy)-3-(methylsulfonyl)phenyl)-4-isopropoxypyrido[3,2-d] pyrimidin-2-amine] yielded an EC50 in data set [1] of less than 100 nM. In data set [2] (Table 2, 3 days incubation), this compound gave a CC50 at 3 days greater than 10000 nM.
`NS(=O)(=O)c1ccc(CNc2nc(OC3CC3)c3nc(C#CC4CC4)ccc3n2)cc1` [Example 286, 4-((4-cyclopropoxy-6-(2-cyclopropylethynyl)pyrido [3,2-d]pyrimidin-2-ylamino)methyl)benzenesulfonamide] registered an EC50 in data set [1] of 100 to 250 nM. Further, the CC50 at 3 days in data set [2] (Table 2, 3 days incubation) is greater than 10000 nM.
Turning to `NS(=O)(=O)c1ccc(CNc2nc(NCC(F)(F)F)c3nc(C#CC4CC4)ccc3n2)cc1` [Example 279, 4-((6-(2-cyclopropylethynyl)-4-(2,2,2-trifluoroethylamino)pyrido[3,2-d]pyrimidin-2-ylamino)methyl)benzene-sulfonamide], the EC50 in data set [1] lay within 100 to 250 nM. In data set [2] (Table 2, 3 days incubation), this compound yielded a CC50 at 3 days greater than 10000 nM.
As for `COc1ccc(-c2ccc3nc(NCCS(N)(=O)=O)nc(NC4(C(F)(F)F)CC4)c3n2)cc1S(C)(=O)=O` [Example 93, 2-(6-(4-methoxy-3-(methylsulfonyl)phenyl)-4-(1-(trifluoromethyl)cyclopropyl-amino)pyrido[3,2-d]pyrimidin-2-ylamino)ethanesulfonamide], the EC50 in data set [1] was less than 100 nM. This compound returned a CC50 at 3 days in data set [2] (Table 2, 3 days incubation) of 1000 to 10000 nM.

Source of the values: patent US8536187B2 (Gilead Sciences, Inc., priority 2008, dated 2013).
